Where a SMILES comes first, the peptide text is derived from it. [ ]: non-standard residue; d: D form. The star is where a group is joined. Bz = O=C(c1ccccc1)*; NPr2 = CCCN(CCC)*
Legend:
MC5R = biological target: T1, MC5R (Homo sapiens, UniProt P33032); test: MC5R activation, cAMP HTRF assay in CHO-K1 cells; assay type: cell-based
T1 construct: host or cells: CHO-K1
Protocol: MCR-activation assays were performed by means of a cAMP HTRF (homogeneous time resolved fluorescence) assay for Gs-coupled receptors (cAMP Gs dynamic kit, Cisbio bioassays, 62AM4PEC). CHO-K1 cells expressing human recombinant MC1 receptor (EuroscreenFast, Gosselies, Belgium) (or MC2R, MC3R, MC4R, MC5R) were grown prior to the test in media without antibiotic. They were detached by gentle flushing with PBS-EDTA (5 mM EDTA), recovered by centrifugation, and resuspended in assay buffer (5 mM KCl, 1.25 mM MgSO4, 124 mM NaCl, 25 mM HEPES, 13.3 mM Glucose, 1.25 mM KH2PO4, 1.45 mM CaCl2, 0.5 g/L BSA, supplemented with 1 mM IBMX). Dose response curves were performed in parallel with the reference compounds. For agonist test (96-well), 12 µL of cells were mixed with 12 µL of the test compound diluted at increasing concentrations in assay buffer, and then incubated for 30 min at room temperature. After addition of the lysis buffer and 1 h incubation, fluorescence signal was measured, according to the manufacturer’s specifications, with the homogeneous time resolved fluorescence (HTRF) kit.

OP3R = biological target: T2, OP3R (Homo sapiens, UniProt P35372); test: OP3R (mu opioid) activation, GTPγS scintillation proximity assay; assay type: biochemical; conditions: eight concentrations, 0.01 to 100,000 nM
T2 construct: host or cells: CHO-K1 (membrane preparations)
Protocol: Melatonin (MT1R and MT2R) and opioid receptor (OP1R, OP2R, and OP3R, corresponding to human delta, kappa, and mu opioid receptors) activation assays were performed by means of GTPγS scintillation proximity assays. For agonist testing, membrane preparations from CHO-K1 cells expressing each receptor (EuroscreenFast, Gosselies, Belgium) were mixed with guanosine diphosphate (GDP) (v/v). In parallel, GTPγ[^35S] (PerkinElmer, NEG030X, 0.1 nM final assay concentration) was mixed with PVT-WGA beads (Perkin Elmer, RPNQ001, 0.5 mg/well final assay density) (v/v) just before starting the reaction. The following reagents were then successively added in the wells of an Optiplate (Perkin Elmer): A total of 50 µL of test or reference ligand diluted in assay buffer, 10 µL of assay buffer (20 mM HEPES pH 7.4; 100–200 mM NaCl, 10 µg/mL saponin, MgCl2 at optimized concentration for the specific receptor, 0%–0.1% BSA), 20 µL of the membranes: GDP mix, and 20 µL of the GTPγ[^35S]: Beads mix. The plates were covered with a top seal, mixed on an orbital shaker for 2 min, and then incubated for 1 h at room temperature. Then the plates were centrifuged for 10 min at 2000 rpm, incubated at room temperature for 1 h, and counted for 1 min/well with a PerkinElmer TopCount™ reader.

[1] = system: human abdominal skin ex vivo; test: Stimulation of pigmentation in human abdominal skin ex vivo (Fontana-Masson melanin quantification); assay type: cell-based; conditions: topical
Protocol: Following declaration of Helsinki principles (DoH-Oct2013, World Medical Association, Ferney-Voltaire, France), human skin samples were obtained from elective plastic surgery after informed consent was obtained. For the two experiments shown in Figure 2, Figure 3 and Figure 4, we had one person with an individual topology angle (ITA°) of 18, and one person with an ITA° of 39 [69]. The skin samples were cut in pieces of 8 × 3 mm and cultured up to day 6. Skin samples were cultured in an air–liquid interface in a perforated ring of stainless steel in contact with culture medium (modified Williams’ E medium). The culture medium was renewed every three days (i.e., day 0–3). Compounds were added daily in DMSO at 4 µL volume. At day 6, the skin samples were fixed in formalin, embedded in paraplast, and cut at the microtome for histochemical staining and consequent image analysis. Six skin biopsies were used for each single treatment.
Two skin biopsies for each treatment were weighed and, in each case, reduced in the dermal portion, in order to have approximately the same weight for all of them. Samples were then washed and processed with methylthiazolyldiphenyl-tetrazolium bromide (MTT). The color intensity, that is directly proportional to skin vitality, was measured with a plate reader at a wavelength of 570 nm. For melanin quantification, skin sections were stained with a modified Fontana-Masson stain that dyes melanin argentaffin granules in black/dark grey. The amount of melanin present in each slide was evaluated by estimating grey intensity and distribution within the sections using ImageJ application (NIH-USA). Two slides of each skin sample were processed by image acquisition and related analysis (i.e., 12 images for each treatment).
Figure 2 Stimulation of pigmentation by MC1R-agonist peptides ex vivo. Melanin was quantified on skin sections using ImageJ software (NIH, USA). Human abdominal skin was topically treated with peptides at various concentrations for six days. * p < 0.05 vs vehicle by unpaired Student’s t-test. […]

Nrf2 (phospho S40) = test: Nrf2 serine 40 phosphorylation in skin explants after UVA-irradiation; assay type: cell-based, human; conditions: p < 0.05 vs UVA-irradiated vehicle control
Protocol: On an abdominoplasty coming from a person with Fitzpatrick phototype II, skin explants of an average diameter of 11 mm were prepared after obtaining written informed consent. The explants were kept in culture medium at 37 °C in a humid, 5% CO2 atmosphere. The peptide was applied topically and spread using a small spatula on day 0 (D0), D1, D2, and D3. […] On day 3, explants were irradiated with UVA (13.5 J/cm^2 equal to 3 minimal erythemal doses (MED)) using a Vilbert Lourmat solar simulator RMX 3W. For the UV irradiation, the explants were transferred into 1 mL of HBSS (Hank’s buffered salt solution) medium. The non-irradiated batches were kept in 1 mL of HBSS medium. After the UV exposure, all the explants were put in fresh Bio-EC’s explant medium (BEM medium). The products were applied on the explants 3 h before and just after UVA irradiation. Twenty-four hours after UVA irradiation, the tissues were harvested and processed for histology. After fixation for 24 h in buffered formalin, the samples were dehydrated and impregnated in paraffin using a Leica TP 1010 dehydration automat. The samples were embedded using a Leica EG 1160 embedding station. Sections 5 µm thick were made using a Leica RM 2125 Minot-type microtome, and the sections were mounted on Superfrost® histological glass slides (Thermo Fisher Scientific, Waltham, MA, USA). […]

T1 sequence (P33032 whole entry): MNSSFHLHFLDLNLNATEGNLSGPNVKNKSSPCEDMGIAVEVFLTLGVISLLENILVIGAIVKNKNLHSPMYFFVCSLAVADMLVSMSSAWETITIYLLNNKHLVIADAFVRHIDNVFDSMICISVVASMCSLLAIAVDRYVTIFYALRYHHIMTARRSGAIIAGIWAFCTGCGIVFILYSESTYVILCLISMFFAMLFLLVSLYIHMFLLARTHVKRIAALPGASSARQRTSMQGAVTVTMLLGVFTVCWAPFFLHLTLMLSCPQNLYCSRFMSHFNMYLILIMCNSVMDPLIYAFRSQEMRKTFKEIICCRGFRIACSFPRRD
T2 sequence (P35372 whole entry): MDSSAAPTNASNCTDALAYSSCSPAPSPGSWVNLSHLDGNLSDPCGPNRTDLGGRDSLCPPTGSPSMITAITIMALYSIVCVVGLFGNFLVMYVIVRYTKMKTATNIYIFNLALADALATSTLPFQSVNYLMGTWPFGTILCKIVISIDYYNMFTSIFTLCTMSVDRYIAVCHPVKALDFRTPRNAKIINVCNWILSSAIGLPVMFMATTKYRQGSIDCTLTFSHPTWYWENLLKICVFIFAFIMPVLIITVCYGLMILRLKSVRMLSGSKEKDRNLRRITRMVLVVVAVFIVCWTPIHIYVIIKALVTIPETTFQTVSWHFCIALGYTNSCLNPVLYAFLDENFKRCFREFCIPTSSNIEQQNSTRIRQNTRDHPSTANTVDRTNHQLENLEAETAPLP

## CCCN(CCC)C(=O)[C@@H](Cc1c[nH]c2ccccc12)NC(=O)[C@H](CCCNC(=N)N)NC(=O)[C@@H](Cc1ccccc1)NC(=O)[C@H](Cc1c[nH]cn1)NC(=O)CNC(=O)c1ccccc1 [Peptide 4] (Bz-GH[dF]R[dW]-NPr2)
MC5R; eight concentrations, 0.01 to 100,000 nM
  EC50: > 100 µM
MC5R; up to 100 µM
  Activation of MC5R: no significant activation
OP3R
  EC50: > 100 µM
[1]; 200 µM peptide, six days
  Stimulation of pigmentation compared to vehicle-treated control tissue: up to 21%
[1]; human abdominal skin ex vivo
  Concentration of optimal activity for pigmentation enhancement: 30 µM
Nrf2 (phospho S40)
  Induction of Nrf2 phosphorylation on serine 40: up to 161%

Source: article PMC6940745 (International Journal of Molecular Sciences, 2019)
